Tests used:
[1] = tested on: APOB secretion in the culture medium of hepatic cells; test: Secreted APOB ELISA in hepatic cells (K3 and JD4 iPSC-derived hepatocytes, human primary hepatocytes, HepG2); assay type: cell-based; conditions: 2 μg/mL, 24 hours; compared to DMSO-treated cells
Protocol: A. Human-induced pluripotent stem cells from a health donor (K3) and HoFH patient (JD4) were differentiated into hepatocytes via a defined protocol. Two different iPSC-derived Hepatocytes along with human primary hepatocytes and HepG2 cells were treated with 2 μg/mL of DL-1 for 24 hours and secreted APOB level were determined via human-specific APOB ELISA and were compared to DMSO-treated cells. […] Data shown as mean±SEM of triplicates (n=3); * p<0.05, *** P<0.001.
Human iPSCs were generated previously and have been described elsewhere (Si-Tayeb, 2010; Cayo et al., 2012). […]
(§1) Human APOB level was determined via a commercial sandwich ELISA (3715-1H-6; Mabtech), and the signal was detected using the HRP-TMB system. The concentration of APOB was determined using a standard curve with four parameters logistic regression model. Human APOA level was determined via a commercial sandwich ELISA (3710-1H-6; Mabtech) following manufacture instruction. Human albumin levels in cell culture supernatants were measured by commercial ELISA (E88-129; Bethyl Laboratories) following manufactural instructions.

[2] = tested on: Albumin; test: Secreted albumin ELISA in iPSC-derived hepatocytes; assay type: cell-based, human
Protocol: D. Human iPSC-derived hepatocytes were treated with DL-1 with concentrations ranging from 0.0325 to 12 or 48 μg/mL for 24 hours. Pre-drug and Post-drug medium were collected for analysis. Albumin and APOB levels were determined via ELISA assay. All secreted proteins were compared to non-treated cells. […] Data are shown as mean±SEM of four replicates (n=4); * p<0.01.
E. Human iPSC-derived hepatocytes were treated with 2 μg/mL of DL-1 from 8 to 48 hours. Albumin, APOPA, and APOB level in the culture medium were determined via ELISA. All secreted proteins were compared to non-treated cells. In FIG. 5, accumulated APOB in the medium from different time-point was measured and normalized to albumin level. In FIG. 6, APOA, APOB, and albumin in the medium at the indicated times were compared to control. […] Data are shown as mean±SEM of four replicates (n=4); *p<0.05, **p<0.01.
as §1

[3] = tested on: Intracellular APOB; test: Intracellular APOB protein by immunoblot; assay type: cell-based, human; conditions: 2 μg/mL, 24 hours
Protocol: G. Human iPSC-derived hepatocytes were treated with 2 μg/mL of DL-1 or equivalent concentration of DMSO for 24 hours. […] (A) APOB mRNA level was determined using real-time qPCR. (B) Intracellular APOB, LDLR, and HSP90 protein levels were determined via immunoblot. (C) Quantification of biological replicates of immunoblots on samples treated as in (B). Data are shown as mean±SEM of four replicates (n=4).
C. Human iPSC-derived hepatocytes (iPSC-Heps) were treated with 2 μg/mL of DL-1 or equivalent concentration of DMSO for 24 hours. In FIG. 7A, APOB mRNA level was determined using real-time qPCR. In FIG. 7B Intracellular APOB, LDLR, and HSP90 protein levels were determined via immunoblot; Quantification of biological replicates of immunoblots. […] In FIG. 12A LDL uptake assay was performed by pre-treating cells with 2 μg/mL of DL-1, 20 μM of Atorvastatin, and equivalent concentration of DMSO for 24 hours followed by 4 hours of pHrodo-LDL exposure; LDL endocytosis was determined and quantified by fluorescence image; data are shown as mean±SD of triplicates (n=3). […]
Immunoprecipitation of cell lysates was performed using protein G magnet beads (ThermoFisher) and anti-APOB (LDL20/17, Mabtech) antibodies. […] Expression levels were quantified via integrated intensity normalized by 5% of input of each sample. […] Signals were detected using HRP-conjugated secondary antibodies. […]

SMILES: Sc1nc(S)nc(Nc2ccc(Nc3ccccc3)cc2)n1 (racemic) [DL-1, 6-{[4-(phenylamino)phenyl]amino}-1,3,5-triazine-2,4-dithiol]
- secreted APOB level [1]: reduces APOB secretion
- albumin level in culture medium, time course ([2]; 2 μg/mL, 8 to 48 hours): without affecting albumin and APOA level
- albumin level, dose-response ([2]; 0.0325 to 12 or 48 μg/mL, 24 hours): without affecting albumin
- intracellular APOB protein level [3]: no impact on APOB mRNA and intracellular protein levels

— patent US20230101743A1, “SUBSTITUTED TRIAZINE COMPOUNDS AND USES THEREOF” (MUSC FOUNDATION FOR RESEARCH DEVELOPMENT, priority 2020, published 2023)
